# Test results from patent EP0485961A1, “Oncostatin M for stimulating LDL uptake and LDL receptor expression” (Bristol-Myers Squibb Company, priority 1990, dated 1992).
# Key:
# Type in all cases: cell-based, human
# [1] = system: tyrosine phosphorylation in HepG2 proteins; experiment: Phosphotyrosine proteins (antiphosphotyrosine immunoblot)
# Procedure: HepG2 cells were plated into six well plates at 4 x 10^5 cells/well. After 48 hours (about 70% confluency), the cells were incubated with Oncostatin M or drugs for the indicated time, rapidly washed once with ice cold PBS, and lysed with 100ul of SDS-sample buffer containing 1 mM mercaptoethanol and 500 uM sodium vanadate. The bufer was rapidly mixed over the entire well before being removed and heated to 100° C for 15 minutes. The samples (25 ul) were separated by SDS-PAGE on 10-20% gradient gels and […] to Hybond C Extra membranes (Amersham). […] Proteins containing phosphotyrosine were detected using an affinity purified rabbit antiphosphotyrosine antibody followed by ['^251]-labeled protein A (ICN).
# HepG2 cells = experiment: LDL uptake assay (fluorescent DiI-LDL method); conditions: for LDL UPTAKE % STIMULATION: HepG2
# Procedure: LDL uptake in HepG2 cells cultured in 12 well plates (Costar) at 2 X 10^5 per well was assayed by the fluorescent LDL method using a fluorescence microscope and video camera (SIT 66) attached to computer (Laser 25) with JAVA image analysis software (Jandel Scientific, CA) as previously reported (Grove, et al.,). […] Specifically, 2 ug/ml Dil-LDL in serum free media was added to HepG2 monolayers for two hours. The monolayers were washed 3 times to remove free Dil-LDL and fixed with 4% formalin in phosphate-buffered saline. Accumulated fluorescence was measured by quantitating the average intensity of 25 - 50 cells. Three difference fields in each of duplicate or triplicate monolayers were quantitated and averaged. The amount of LDL protein taken up was determined as follows. Unfixed cell monolayers were solubilized with 0.1% sodium dodecyl sulfate, transferred into glass tubes, and the lipids (and Dil) were extracted into chloroform using the Bligh-Dyer extraction procedure. Fluorescence in the chloroform layer was quantitated with a fluorescence spectrophotometer (Perkin-Elmer) and compared with a standard curve generated by extracting Dil from known quantities of Dil-LDL. Coomassie blue kits (Pierce) were used to estimate cell proteins.
# diacylglycerol = experiment: Lipid analysis: diacylglycerol levels ([3H]-glycerol labelling, TLC); conditions: genistein
# Procedure: Lipids from cells radiolabeled with [^32P]-orthophosphate or with (^3H]-glycerol were extracted by a modification of the method of Bligh and Dyer. Extracts, dried under a stream of nitrogen, were solublized with 100 ul of chloroform and spotted on thin-layer chromatography (TLC) plates (Silica Gel 60, Merck). The phospholipids were resolved either with a solvent system designed to separate the inositides (propanol: 4.3 M ammonium hydroxide, 65:35 v/v) or with a system designed to separate phosphatidylcholine and phosphatidylethanolamine (chloroform:methanol:acetic acid:water (50:35:8:1, v/v). Neutral lipids were resolved in a tank containing benzene:ethyl acetate (80:20, v/v). The radiolabeled phospholipids were identified as spots on autoradiographs which comigrated with authentic standards (detected with iodine vapors), were scraped into scintillation vials, and were quantitated in a scintillation counter. Neutral lipid standards (diacylglycerol and triacylglycerol) which were added to the [^3H)- glycerol labeled lipid extracts before chromatography were identified with iodine vapors, scraped into scintillation vials, and analyzed as outlined above.
molecule,measurement,setting,value
vanadate,TYROSINE PHOSHORYLATION,"[1]; HepG2, grades - to + + + + +, legend not given",+ + +
same,effect on tyrosine kinase stimulation by Oncostatin M,[1]; vanadate with Oncostatin M,synergistically enhance
same,LDL UPTAKE % STIMULATION,HepG2 cells,6%
same,effect on LDLR expression stimulation by Oncostatin M,HepG2 cells; vanadate with Oncostatin M,synergistically enhance
CC1CNCCN1S(=O)(=O)c1cccc2cnccc12 (stereo not drawn) [H-7],effect on increase in LDL uptake induced by Oncostatin M,"HepG2 cells; 10 ug/ml H-7 for 30 min, then 4 hours Oncostatin M (100 ng/ml)",prevented the increases in LDL uptake
same,effect on increase in LDL uptake induced by PMA,"HepG2 cells; 10 ug/ml H-7 for 30 min, then 4 hours PMA (10 nM)",prevented the increases in LDL uptake
O=c1c(-c2ccc(O)cc2)coc2cc(O)cc(O)c12 [Genistein],effect on Oncostatin M-induced tyrosine phosphorylation,"[1]; genistein 30 ug/ml, 30 minutes before Oncostatin M (100 ng/ml, 10 minutes)",mitigated
same,LDL UPTAKE % STIMULATION,HepG2 cells,-10%
same,effect on Oncostatin M-induced elevations in LDLR activity,HepG2 cells; genistein,inhibited
same,effect on Oncostatin M-induced elevations in diacylglycerol,diacylglycerol,inhibited
"CCCCCCCCCCCCCC(=O)O[C@@H]1[C@@H](C)[C@@]2(O)[C@@H](C=C(CO)C[C@]3(O)C(=O)C(C)=C[C@@H]23)[C@@H]2C(C)(C)[C@]12OC(C)=O [PMA, phorbol 12-myristate 13-acetate]",LDL uptake,"HepG2 cells; PMA 10 nM, 4 hours, time dependency similar to Oncostatin M",induced LDL uptake
same,effect on the inhibition of LDLR expression with genistein,HepG2 cells; PMA 50 nM added to genistein-inhibited HepG2 cells,reversed
